Molecular target: wild-type human cardiac sodium channel, hNav1.5 (Homo sapiens, UniProt Q14524)
Test: Late INa screening assay (automated whole cell patch clamp, PatchXpress)
Format: cell-based
Details: HEK293 cells expressing hNav1.5, late INa generated with 10 μM Tefluthrin (or 50 nM ATX II); for inhibition at 1 µM: compound at 1 μM, read-out: LateINa_1 uM (percent block of late INa); for inhibition at 10 µM: compound at 10 μM, read-out: LateINa_10 uM (percent block of late INa)
Procedure, shortened: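 Late sodium current through wild-type human hNav1.5 stably expressed in HEK293 cells (no beta subunits) was recorded by automated whole-cell patch clamp on a PatchXpress 7000A at 24-27° C. Late INa was induced with 10 μM Tefluthrin or 50 nM ATX II. Cells were stepped from −120 mV to −20 mV for 250 ms at 0.1 Hz, and percent block was normalized to current in Na-free extracellular solution.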

Sequence of wild-type human cardiac sodium channel, hNav1.5 (Q14524 whole entry): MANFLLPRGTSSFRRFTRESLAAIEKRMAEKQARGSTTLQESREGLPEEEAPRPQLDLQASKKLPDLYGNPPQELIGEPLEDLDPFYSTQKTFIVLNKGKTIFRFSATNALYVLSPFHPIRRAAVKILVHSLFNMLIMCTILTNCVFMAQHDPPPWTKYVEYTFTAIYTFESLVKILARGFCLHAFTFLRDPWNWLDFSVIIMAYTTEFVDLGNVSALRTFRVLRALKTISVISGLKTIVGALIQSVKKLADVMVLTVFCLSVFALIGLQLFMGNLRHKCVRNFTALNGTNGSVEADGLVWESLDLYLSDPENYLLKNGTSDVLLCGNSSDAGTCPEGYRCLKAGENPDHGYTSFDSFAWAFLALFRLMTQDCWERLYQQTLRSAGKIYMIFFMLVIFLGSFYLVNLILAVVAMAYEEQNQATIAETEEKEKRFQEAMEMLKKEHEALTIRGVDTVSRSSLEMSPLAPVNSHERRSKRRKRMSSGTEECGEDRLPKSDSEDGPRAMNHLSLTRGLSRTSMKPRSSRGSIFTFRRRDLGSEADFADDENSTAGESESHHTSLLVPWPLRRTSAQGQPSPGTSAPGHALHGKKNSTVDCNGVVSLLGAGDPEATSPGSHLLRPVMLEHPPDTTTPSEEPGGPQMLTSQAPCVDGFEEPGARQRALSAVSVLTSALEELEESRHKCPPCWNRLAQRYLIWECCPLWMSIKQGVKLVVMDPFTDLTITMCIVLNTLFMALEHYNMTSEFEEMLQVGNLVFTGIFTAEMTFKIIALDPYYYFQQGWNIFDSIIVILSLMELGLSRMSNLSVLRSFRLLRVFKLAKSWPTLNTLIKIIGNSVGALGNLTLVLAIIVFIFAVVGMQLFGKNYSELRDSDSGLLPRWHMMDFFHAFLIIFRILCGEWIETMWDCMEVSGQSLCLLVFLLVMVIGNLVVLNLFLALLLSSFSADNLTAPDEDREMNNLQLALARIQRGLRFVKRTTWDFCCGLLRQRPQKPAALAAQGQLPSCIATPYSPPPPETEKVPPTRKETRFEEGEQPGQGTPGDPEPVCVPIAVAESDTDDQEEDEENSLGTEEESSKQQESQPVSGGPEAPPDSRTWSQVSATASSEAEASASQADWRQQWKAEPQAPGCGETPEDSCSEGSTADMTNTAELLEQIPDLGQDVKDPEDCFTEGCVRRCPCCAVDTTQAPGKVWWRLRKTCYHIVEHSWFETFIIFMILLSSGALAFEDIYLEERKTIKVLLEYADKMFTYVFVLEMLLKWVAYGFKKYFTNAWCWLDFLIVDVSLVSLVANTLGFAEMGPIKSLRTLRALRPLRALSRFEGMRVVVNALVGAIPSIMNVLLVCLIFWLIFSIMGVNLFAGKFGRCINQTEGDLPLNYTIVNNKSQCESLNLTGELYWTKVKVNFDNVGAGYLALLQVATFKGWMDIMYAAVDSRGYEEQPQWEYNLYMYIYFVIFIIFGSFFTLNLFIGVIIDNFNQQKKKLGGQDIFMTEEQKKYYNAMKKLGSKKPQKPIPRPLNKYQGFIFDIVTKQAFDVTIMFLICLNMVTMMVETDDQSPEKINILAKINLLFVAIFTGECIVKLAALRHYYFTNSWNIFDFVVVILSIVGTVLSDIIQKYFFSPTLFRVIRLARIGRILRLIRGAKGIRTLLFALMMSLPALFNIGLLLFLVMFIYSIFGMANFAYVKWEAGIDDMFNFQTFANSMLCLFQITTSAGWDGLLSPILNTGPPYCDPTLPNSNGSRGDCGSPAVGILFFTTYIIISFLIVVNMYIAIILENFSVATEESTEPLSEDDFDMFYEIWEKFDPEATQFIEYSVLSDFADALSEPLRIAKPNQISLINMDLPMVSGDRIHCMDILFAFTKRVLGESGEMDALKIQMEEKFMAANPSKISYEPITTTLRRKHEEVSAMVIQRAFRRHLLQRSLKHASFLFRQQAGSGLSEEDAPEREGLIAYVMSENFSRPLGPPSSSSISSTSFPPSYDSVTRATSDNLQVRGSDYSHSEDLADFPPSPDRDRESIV

Structure (SMILES)	inhibition at 1 µM	inhibition at 10 µM
FC(F)(F)Oc1ccc(-c2ccc3nnc(C(F)(F)OCc4ccncc4)n3c2)cc1 [BHN-149, 3-[difluoro(pyridin-4-ylmethoxy)methyl]-6-[4-(trifluoromethoxy)phenyl][1,2,4]triazolo[4,3-a]pyridine]	34%	
Cc1cc(COC(F)(F)c2nnc3ccc(-c4ccc(OC(F)(F)F)cc4)cn23)c2ccccc2n1 [BHN-289, 4-[(difluoro{6-[4-(trifluoromethoxy)phenyl][1,2,4]triazolo[4,3-a]pyridin-3-yl}methoxy)methyl]-2-methylquinoline]	47.9%	
FC(F)(F)c1nnc2ccc(-c3ccc(Oc4ccccc4)cc3)cn12 [BHN-332, 6-(4-phenoxyphenyl)-3-(trifluoromethyl)[1,2,4]triazolo[4,3-a]pyridine]		83.5%
Fc1cccc(F)c1CCOC(F)(F)c1nnc2ccc(-c3ccc(OC(F)(F)F)cc3)cn12 [BHN-322, 3-{[2-(2,6-difluorophenyl)ethoxy](difluoro)methyl}-6-[4-(trifluoromethoxy)phenyl][1,2,4]triazolo[4,3-a]pyridine]	72.5%	
FC(F)(F)c1nnc2ccc(-c3ccc(OC4CC4)cc3)cn12 [BHN-102, 6-[4-(cyclopropyloxy)phenyl]-3-(trifluoromethyl)[1,2,4]triazolo[4,3-a]pyridine]	45.5%	
FC(F)(F)Oc1ccc(-c2ccc3nnc(C(F)(F)OCc4ccccc4-n4cccn4)n3c2)cc1 [BHN-328, 3-(difluoro{[2-(1H-pyrazol-1-yl)benzyl]oxy}methyl)-6-[4-(trifluoromethoxy)phenyl][1,2,4]triazolo[4,3-a]pyridine]	70.9%	
CC(C)(C)OC(=O)N1CCC[C@H]1COC(F)(F)c1nnc2ccc(-c3ccc(OC(F)(F)F)cc3)cn12 [BHN-256, tert-butyl (2S)-2-[(difluoro{6-[4-(trifluoromethoxy)phenyl][1,2,4]triazolo[4,3-a]pyridin-3-yl}methoxy)methyl]pyrrolidine-1-carboxylate]	62.6%	
FC(F)(F)Oc1ccc(-c2ccc3nnc(C(F)(F)OCc4cccc(-c5ncccn5)c4)n3c2)cc1 [BHN-305, 3-(difluoro{[3-(pyrimidin-2-yl)benzyl]oxy}methyl)-6-[4-(trifluoromethoxy)phenyl][1,2,4]triazolo[4,3-a]pyridine]	59.6%	
FC(F)(F)c1ncc2ccc(-c3ccccc3)cn12 [BHN-194, 6-phenyl-3-(trifluoromethyl)imidazo[1,5-a]pyridine]	22.2%	
FC(F)(F)Oc1ccc(-c2ccc3nnc(C(F)(F)OCc4ccnc5ccccc45)n3c2)cc1 [BHN-212, 4-[(difluoro{6-[4-(trifluoromethoxy)phenyl][1,2,4]triazolo[4,3-a]pyridin-3-yl}methoxy)methyl]quinoline]	59.6%	
FC(F)(F)c1nnc2ccc(-c3ccc(Oc4ccccc4)cc3)nn12 [BHN-11, 6-(4-phenoxyphenyl)-3-(trifluoromethyl)[1,2,4]triazolo[4,3-b]pyridazine]		44.7%
CNC(=O)c1cc(-c2ccc3nnc(C(F)(F)F)n3c2)ccc1OC(F)(F)F [BHN-174, N-methyl-2-(trifluoromethoxy)-5-[3-(trifluoromethyl)[1,2,4]triazolo[4,3-a]pyridin-6-yl]benzamide]	16%	
Fc1cc(OC(F)(F)F)ccc1-c1ccc2nnc(C(F)(F)F)n2c1 [BHN-145, 6-[2-fluoro-4-(trifluoromethoxy)phenyl]-3-(trifluoromethyl)[1,2,4]triazolo[4,3-a]pyridine]	55.3%	
COCC(F)(F)c1nnc2ccc(-c3ccc(OC(F)(F)F)cc3C)cn12 [BHN-200, 3-(1,1-difluoro-2-methoxyethyl)-6-[2-methyl-4-(trifluoromethoxy)phenyl][1,2,4]triazolo[4,3-a]pyridine]	40.8%	
CN(c1ccccc1)c1ccc(-c2ccc3nnc(C(F)(F)F)n3c2)cc1 [BHN-278, N-methyl-N-phenyl-4-[3-(trifluoromethyl)[1,2,4]triazolo[4,3-a]pyridin-6-yl]aniline]	54.2%	
FC(F)c1nnc2cnc(-c3ccc(OC(F)(F)F)cc3)cn12 [BHN-23, 3-(difluoromethyl)-6-[4-(trifluoromethoxy)phenyl][1,2,4]triazolo[4,3-a]pyrazine]	53.5%	74.7%
FC(F)(F)Oc1ccc(-c2ccc3nnc(C(F)(F)OCc4coc(-c5ccc(C(F)(F)F)cc5)n4)n3c2)cc1 [BHN-288, 3-[difluoro({2-[4-(trifluoromethyl)phenyl]-1,3-oxazol-4-yl}methoxy)methyl]-6-[4-(trifluoromethoxy)phenyl][1,2,4]triazolo[4,3-a]pyridine]	39.2%	
COc1cc(C(F)(F)F)ccc1-c1ccc2nnc(C(F)(F)F)n2c1 [BHN-105, 6-[2-methoxy-4-(trifluoromethyl)phenyl]-3-(trifluoromethyl)[1,2,4]triazolo[4,3-a]pyridine]	49.3%	

Structure (SMILES)	inhibition at 1 µM	inhibition at 10 µM
FC(F)(F)Oc1ccc(-c2ccc3c(-c4ccccc4)nc(C(F)(F)F)n3c2)cc1 [BHN-34, 1-phenyl-6-[4-(trifluoromethoxy)phenyl]-3-(trifluoromethyl)imidazo[1,5-a]pyridine]		33.4%
Cc1c(-c2ccc(OC(F)(F)F)cc2)ccc2nnnn12 [BHN-269, 5-methyl-6-[4-(trifluoromethoxy)phenyl]tetrazolo[1,5-a]pyridine]	44.7%	
FC(F)(F)c1nnc2ccc(-c3ccc(-c4ccccc4)cc3)cn12 [BHN-57, 6-(biphenyl-4-yl)-3-(trifluoromethyl)[1,2,4]triazolo[4,3-a]pyridine]	45.8%	39.5%
Cn1c(COC(F)(F)c2nnc3ccc(-c4ccc(OC(F)(F)F)cc4)cn23)nc2ccccc21 [BHN-296, 3-{difluoro[(1-methyl-1H-benzimidazol-2-yl)methoxy]methyl}-6-[4-(trifluoromethoxy)phenyl][1,2,4]triazolo[4,3-a]pyridine]	40.1%	
FC(F)(F)Oc1ccc(-c2ccc3nnc(C(F)(F)OCc4cn(-c5ccccc5)nn4)n3c2)cc1 [BHN-215, 3-{difluoro[(1-phenyl-1H-1,2,3-triazol-4-yl)methoxy]methyl}-6-[4-(trifluoromethoxy)phenyl][1,2,4]triazolo[4,3-a]pyridine]	36.4%	
FC(F)(F)Oc1ccc(-c2ccc3nnc(COCc4ccc(Cl)cc4Cl)n3c2)cc1 [BHN-250, 3-{[(2,4-dichlorobenzyl)oxy]methyl}-6-[4-(trifluoromethoxy)phenyl][1,2,4]triazolo[4,3-a]pyridine]	79.1%	
FC(F)(F)c1ncc2ccc(-c3ncco3)cn12 [BHN-183, 6-(1,3-oxazol-2-yl)-3-(trifluoromethyl)imidazo[1,5-a]pyridine]	19.5%	
CC#CCOC(F)(F)c1nnc2ccc(-c3ccc(OC(F)(F)F)cc3)cn12 [BHN-293, 3-[(but-2-yn-1-yloxy)(difluoro)methyl]-6-[4-(trifluoromethoxy)phenyl][1,2,4]triazolo[4,3-a]pyridine]	80.6%	
O=C(NCC(F)(F)c1nnc2ccc(-c3ccc(OC(F)(F)F)cc3)cn12)c1ccccn1 [BHN-184, N-(2,2-difluoro-2-{6-[4-(trifluoromethoxy)phenyl][1,2,4]triazolo[4,3-a]pyridin-3-yl}ethyl)pyridine-2-carboxamide]	29.8%	
FC(F)(F)c1ncc2ccc(-c3ccc(Oc4ccccc4)cc3)cn12 [BHN-7, 6-(4-phenoxyphenyl)-3-(trifluoromethyl)imidazo[1,5-a]pyridine]		55.4%
Fc1ccccc1Oc1ccc(-c2ccc3nnc(C(F)(F)F)n3c2)cc1 [BHN-112, 6-[4-(2-fluorophenoxy)phenyl]-3-(trifluoromethyl)[1,2,4]triazolo[4,3-a]pyridine]	32.9%	
FC(F)(F)c1ccc(-c2ccc3nnc(C(F)(F)F)n3c2)cn1 [BHN-91, 3-(trifluoromethyl)-6-[6-(trifluoromethyl)pyridin-3-yl][1,2,4]triazolo[4,3-a]pyridine]		46.7%
FC(F)(F)c1nnc2ccc(-c3ccc(OC(F)(F)c4cccnc4)cc3)cn12 [BHN-271, 6-{4-[difluoro(pyridin-3-yl)methoxy]phenyl}-3-(trifluoromethyl)[1,2,4]triazolo[4,3-a]pyridine]	19.9%	
FC(F)(F)c1nnc2ccc(-c3ccc(Oc4ccc(Cl)cc4)cc3)cn12 [BHN-65, 6-[4-(4-chlorophenoxy)phenyl]-3-(trifluoromethyl)[1,2,4]triazolo[4,3-a]pyridine]	55.6%	85.7%
FC(F)(F)Oc1ccc(-c2ccc3nnc(C(F)(F)OCc4cc(-c5ccc(C6CC6)nc5)ccn4)n3c2)cc1 [BHN-316, 6-cyclopropyl-2′-[(difluoro{6-[4-(trifluoromethoxy)phenyl][1,2,4]triazolo[4,3-a]pyridin-3-yl}methoxy)methyl]-3,4′-bipyridine]	59%	
Cc1nn(-c2ccccc2)nc1COC(F)(F)c1nnc2ccc(-c3ccc(OC(F)(F)F)cc3)cn12 [BHN-300, 3-{difluoro[(5-methyl-2-phenyl-2H-1,2,3-triazol-4-yl)methoxy]methyl}-6-[4-(trifluoromethoxy)phenyl][1,2,4]triazolo[4,3-a]pyridine]	63%	
CN(C)CCOCC(F)(F)c1nnc2ccc(-c3ccc(OC(F)(F)F)cc3)cn12 [BHN-150, 2-(2,2-difluoro-2-{6-[4-(trifluoromethoxy)phenyl][1,2,4]triazolo[4,3-a]pyridin-3-yl}ethoxy)-N,N-dimethylethanamine]	15.6%	
FC(F)(F)Oc1ccc(-c2ccc3nnc(COCc4ccc(Cl)cc4)n3c2)cc1 [BHN-241, 3-{[(4-chlorobenzyl)oxy]methyl}-6-[4-(trifluoromethoxy)phenyl][1,2,4]triazolo[4,3-a]pyridine]	82.2%	

Source: patent US8952034B2, “Fused heterocyclic compounds as ion channel modulators” (Gilead Sciences, Inc., priority 2009, dated 2015)
